Results taken from US20250295680A1, “NOVEL DUTOGLIPTIN FORMULATIONS AND THEIR PREPARATION” (Recardio Inc., priority 2022, published 2025).

Test: Solubility of fatty acid sodium salts and salt precipitation/anion exchange with Dutogliptin tartrate
Type: physicochemical
Details: for Precipitation after addition of Dutogliptin tartrate solution: 100 mg/ml Dutogliptin tartrate solution, 2-8° C.; for Solubility 25° C. / Solubility 2-8° C.: volume for the stated amount of substance (0.41 mmol Dutogliptin tartrate, 0.83 mmol fatty acid salts)
Experimental: Assuming that the ion lattice of Dutogliptin tartrate (dissolved in water) is pulled apart so that the individual Dutogliptin and tartrate ions are in solution, an exchange should take place by adding excess fatty acid anions. The resulting hydrophobic salt should form and precipitate due to reduced solubility.
To promote the exchange, the salts, which were dissolved at room temperature, were cooled to 2-8° C. after the addition of Dutogliptin tartrate and stirred overnight.
Five different physiologic fatty acids (as sodium salts) were prepared by anion exchange of the tartrates with a double molar addition of the salts at a reduced temperature (reduced Dutogliptin tartrate solubility).

[1] = listed as sodium cholate, hydrate

| Compound | Precipitation after addition of Dutogliptin tartrate solution (hydrate) | Precipitation after addition of Dutogliptin tartrate solution [1] | Solubility 25° C. [mL] | Solubility 2-8° C. (hydrate) | Solubility 2-8° C. [1] | Solubility 2-8° C. |
| --- | --- | --- | --- | --- | --- | --- |
| C[C@H](CCC(=O)[O-])[C@H]1CC[C@H]2[C@@H]3[C@H](O)C[C@@H]4C[C@H](O)CC[C@]4(C)[C@H]3C[C@H](O)[C@]12C.O.[Na+] [Sodium cholate hydrate] | no precipitation | no visual evidence of turbidity or precipitation | 5 | 5 mL, clear | remained sufficient soluble | – |
| CCCCCCCCCCCC(=O)[O-].[Na+] [Sodium Laurate] | – | – | 10 | – | – | not soluble |
| CCCCCCCCCCCCCC(=O)[O-].[Na+] [Sodium Myristate] | – | – | >10 | – | – | not soluble |
